In US20140249293A1, “Absent and Rare Peptides and Therapeutic Uses Thereof” (Boise State University, priority 2012, published 2014):
Read-outs that look alike come from different tables or passages of the source. Ends that are not written are not given here.

Experiments:
[1] = system: paclitaxel-resistant LnCap cells; experiment: MTT assay of paclitaxel-resistant LnCap cells (reversal of paclitaxel resistance); assay type: cell-based; details: paclitaxel alone, even at 600 μM (data not shown)
Procedure: The 9R peptide (SEQ ID NO: 200; labeled “9” in FIG. 16) was tested for its ability to reverse paclitaxel (TAXOL™) resistance in paclitaxel-resistant LnCap cells.
Paclitaxel-resistant LnCaP cells were treated with the peptides for 120 hours, and incubated with MTT for 4 hours. The paclitaxel-resistant LnCap cells were resistant to paclitaxel even at 600 μM concentration (data not shown). Referring to FIG. 16, the paclitaxel-resistant LnCap cells were resistant to 9R at the 100 μM level (labeled **). However, the combination of paclitaxel (at little as 30 nM) and 9R (at little as 5 μM) killed the paclitaxel-resistant LnCap cells (labeled ***).

LnCaP cells [2] = details: for IC50: 48 h
Procedure: LnCaP cells were treated with peptides 9R, 9S1, 120 (SEQ ID NO: 120) and a vehicle control. LnCaP cells were treated with the peptides for 48 hours, and incubated with MTT for 4 hours. For background level of absorbance, media alone was measured on the plate. […] Several concentrations of peptides were used to determine the IC50 of these peptides.
These cells were treated with an identical concentration (30 μM) of peptoprime peptide 120.

mice = details: cited from earlier work
[3] = system: Normal (non-cancer) human lung fibroblast cells (WI-38); experiment: MTT assay of WI-38 cells; assay type: cell-based; details: WI-38 normal fibroblasts, treated 1 hour, MTT 4 hours
Procedure: Normal (non-cancer) human lung fibroblast cells (WI-38) were also treated with the 9R, 9S1, and 120 peptides. WI-38 cells were treated with the peptides for 1 hour and followed by MTT for 4 hours. Although the treated cells show no decrease in MTT absorbance, this may have been due to the cells being plated at lower concentration, and may not have been actively dividing.

LnCaP cells [4] = assay type: cell-based; details: 24 h
Description: The HCS MITOCHONDRIAL HEALTH KIT™ (available from Invitrogen) includes a dye that is taken up by healthy, actively respiring mitochondria. The uptake of this dye can be visualized with fluorescent confocal microscopy. FIGS. 9A-9C show control LnCaP cells treated only with the vehicle control (i.e., no peptide). The Hoechst dye stained nuclei of cells, whether they were alive or dead (Excitation/Emission maxima—Hoechst 33342: 350/461 nm). FIG. 9A is a panel showing all nuclei stained with Hoechst dye. FIG. 9B is a panel showing healthy mitochondria stained with MitoHealth dye. FIG. 9C is a panel showing the merged images of 9A and 9B. The mitochondrial health dye incorporated into the cells depends on mitochondrial membrane potential (excitation/emission maxima—MitoHealth stain: 550/580 nm). The HCS MITOCHONDRIAL HEALTH KIT™ (Invitrogen) was developed for simultaneous quantitative measurements of two cell health parameters in the same cell: mitotoxicity and cytotoxicity. The MitoHealth stain accumulated in mitochondria in live cells proportional to the mitochondrial membrane potential.
A range of peptide concentrations was applied to the LnCap cells. […] The cells were treated for 24 hrs.
A range of peptide concentrations was used to treat LnCap cells. […] The cells were incubated with peptide for 24 hrs.

Compound	MTT absorbance [3]	IC50 (LnCaP cells [2])	IC50 (LnCaP cells [4])	further results
CC(=O)O[C@H]1C(=O)[C@@]2(C)[C@H]([C@H](OC(=O)c3ccccc3)[C@]3(O)C[C@H](OC(=O)[C@H](O)[C@@H](NC(=O)c4ccccc4)c4ccccc4)C(C)=C1C3(C)C)[C@]1(OC(C)=O)CO[C@@H]1C[C@@H]2O [paclitaxel]	–	–	–	sensitivity of paclitaxel-resistant LnCap cells (MTT) [1]: resistant
OO [peroxide, Hydrogen peroxide, reference compound]	–	–	–	MTT absorbance value compared with control treatment cells (LnCaP cells [2]; LnCaP, treated 48 hours, MTT 4 hours): marked decrease
AQGV	–	–	–	recuperation after lethal exposure to radiation (mice): shown promise in accelerating the recuperation
RRRRRNWMWC [Peptide 9R, RRRRRNWMWC]	no decrease	~50 µM	100 µM	–
WCMNW [Peptide 9S1, WCMNW]	no decrease	~30 µM	30 µM	–
WFMHW [Peptide 120, WFMHW]	no effect	–	–	–
